18 molecules from patent publication US11091478B2 (Fochon Pharmaceuticals, Ltd., priority 2017, dated 2021) can be followed below.

Where two headings read alike, the source gives them in different places.

The subject of one assay is DOHH2 cells. In words: Cell proliferation assay (MTS), DOHH2 cells, 120 h. Type of assay: cell-based. The method in brief:
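RS4;11 and DOHH2 cells at 5000 cells/well in RPMI-1640 with 10% FBS were treated with compound at 1.5–10000 nM final, nine points, at 37 °C, 5% CO2. Exposure was 72 h for RS4;11 and 120 h for DOHH2. MTS was added for 2 h, absorbance read at 490/650 nm, and IC50 calculated.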

A further assay deals with RS4;11 cells. In words: Cell proliferation assay (MTS), RS4;11 cells, 72 h. The format is cell-based. The source says: Cell Proliferation Assays
MTS testing kit was purchased from Promega. The RPMI-1640, Fetal bovine serum and Penicillin-Streptomycin were purchased from Gibco. Dimethyl sulfoxide (DMSO) was purchased from Sigma.
To investigate whether a compound is able to inhibit the activity of BCL-2 in cells, a mechanism-based assay using DOHH2 (DSMZ No.® ACC 47) and RS4;11 (ATCC® CRL-1873™) cell was developed. In this assay, inhibition of Bcl-2 was detected by the inhibition of DOHH2 cells proliferation. DOHH2 cells were cultured in culture flasks to 40-80% confluence in RPMI-1640 plus 10% fetal bovine serum. Cells were collected and plated onto 96-well plates at desired cell density (5000 cells/well). Plates were incubated overnight at 37° C., with 5% CO2 to adhere. Compounds were added to the plates, and the final compound concentrations were 10000, 3333, 1111, […], 124, 41, 14, 4.6 and 1.5 nM. Plates plated with DOHH2 or RS4;11 cells were placed at 37° C., with 5% CO2 for 120 h (DOHH2) or 72 h (RS4;11) respectively. 20 μl MTS/100 μl medium mixture solution were added to each well and incubate the plates for exactly 2 hours. The reaction was stopped by adding 25 μl 10% SDS per well. Measure absorbance at 490 nm and 650 nm (reference wavelength). IC50 was calculated using GraphPad Prism 5.0.
Select compounds prepared as described above were assayed according to the biological procedures described herein.

Broadly, the IC50 is the concentration at which inhibition is half-maximal. A low value points to greater potency. Consider `CC1(C)CCC(CN2CCN(c3ccc(C(=O)NS(=O)(=O)c4cc5c(c([N+](=O)[O-])c4)N[C@H](C4CCC(C)(O)CC4)CO5)c(Oc4cnc5[nH]ccc5c4)c3)CC2)=C(c2ccc(Cl)cc2)C1` (single isomer, unassigned) [Example 2-3A], for which the IC50 in the assay with DOHH2 cells (Homo sapiens, DOHH-2, 120 h) stood at 16 nM; in the assay with RS4;11 cells (Homo sapiens, RS4-11, 72 h), 1 nM.
Turning to `CC1(C)CCC(CN2CCN(c3ccc(C(=O)NS(=O)(=O)c4cc5c(c([N+](=O)[O-])c4)N[C@H](C4CCC(C)(O)CC4)CO5)c(Oc4cnc5[nH]ccc5c4)c3)CC2)=C(c2ccc(Cl)cc2)C1` (single isomer, unassigned) [Example 2-3B], the IC50 was determined as 33 nM with DOHH2 cells (Homo sapiens, DOHH-2) and 8 nM in the assay on RS4;11 cells (Homo sapiens).
With `CC1(C)CCC(CN2CCN(c3ccc(C(=O)NS(=O)(=O)c4cc5c(c([N+](=O)[O-])c4)N[C@H](CC4CCC(O)CC4)CO5)c(Oc4cnc5[nH]ccc5c4)c3)CC2)=C(c2ccc(Cl)cc2)C1` (single isomer, unassigned) [Example 2-239A], the IC50 in the assay with DOHH2 cells worked out at 5 nM; in the assay with RS4;11 cells (Homo sapiens, RS4-11, 72 h) it was 1 nM.
Take `CC1(C)CCC(CN2CCN(c3ccc(C(=O)NS(=O)(=O)c4cc5c(c([N+](=O)[O-])c4)N[C@H](CC4CCC(O)CC4)CO5)c(Oc4cnc5[nH]ccc5c4)c3)CC2)=C(c2ccc(Cl)cc2)C1` (single isomer, unassigned) [Example 2-239B]: the IC50 with DOHH2 cells and with RS4;11 cells was 1 nM each time.
For the molecule `CC1(C)CCC(CN2CCN(c3ccc(C(=O)NS(=O)(=O)c4cc5c(c([N+](=O)[O-])c4)N[C@H](C4CCC(O)CC4)CO5)c(Oc4cnc5[nH]ccc5c4)c3)CC2)=C(c2ccc(Cl)cc2)C1` (single isomer, unassigned) [Example 2-240A], the IC50 stood at 5 nM in the assay on DOHH2 cells and 1 nM with RS4;11 cells (Homo sapiens, RS4-11, 72 h).
For the molecule `CC1(C)CCC(CN2CCN(c3ccc(C(=O)NS(=O)(=O)c4cc5c(c([N+](=O)[O-])c4)N[C@H](C4CCC(O)CC4)CO5)c(Oc4cnc5[nH]ccc5c4)c3)CC2)=C(c2ccc(Cl)cc2)C1` (single isomer, unassigned) [Example 2-240B], the IC50 in the assay on DOHH2 cells and in the assay with RS4;11 cells was 1 nM throughout.
On to `CC1(C)CCC(CN2CCN(c3ccc(C(=O)NS(=O)(=O)c4cc5c(c([N+](=O)[O-])c4)N[C@@H](CC4CCC(O)CC4)CO5)c(Oc4cnc5[nH]ccc5c4)c3)CC2)=C(c2ccc(Cl)cc2)C1` (single isomer, unassigned) [Example 2-244A], for which the IC50 with DOHH2 cells came out at 7 nM; in the assay with RS4;11 cells (Homo sapiens, RS4-11, 72 h) it was 3 nM.
Regarding `CC1(C)CCC(CN2CCN(c3ccc(C(=O)NS(=O)(=O)c4cc5c(c([N+](=O)[O-])c4)N[C@@H](CC4CCC(O)CC4)CO5)c(Oc4cnc5[nH]ccc5c4)c3)CC2)=C(c2ccc(Cl)cc2)C1` (single isomer, unassigned) [Example 2-244B], the IC50 in the assay on DOHH2 cells was 1 nM; in the assay with RS4;11 cells, 3 nM.
On to `CC1(C)CCC(CN2CCN(c3ccc(C(=O)NS(=O)(=O)c4cc5c(c([N+](=O)[O-])c4)N[C@H](CN4CCOCC4)C5)c(Oc4cnc5[nH]ccc5c4)c3)CC2)=C(c2ccc(Cl)cc2)C1` [Example 1-1, (S)-2-((1H-pyrrolo[2,3-b]pyridin-5-yl)oxy)-4-(4-((4′-chloro-5,5-dimethyl-3,4,5,6-tetrahydro-[1,1′-biphenyl]-2-yl)methyl)piperazin-1-yl)-N-((2-(morpholinomethyl)-7-nitroindolin-5-yl)sulfonyl)benzamide], for which the IC50 in the assay with DOHH2 cells (Homo sapiens, DOHH-2, 120 h) turned out to be 80 nM; in the assay on RS4;11 cells (Homo sapiens, RS4-11, 72 h), 48 nM.
As for `CC1(C)CCC(CN2CCN(c3ccc(C(=O)NS(=O)(=O)c4cc5c(c([N+](=O)[O-])c4)N[C@H](CCN4CCOCC4)C5)c(Oc4cnc5[nH]ccc5c4)c3)CC2)=C(c2ccc(Cl)cc2)C1` [Example 1-2, (S)-2-((1H-pyrrolo[2,3-b]pyridin-5-yl)oxy)-4-(4-((4′-chloro-5,5-dimethyl-3,4,5,6-tetrahydro-[1,1′-biphenyl]-2-yl)methyl)piperazin-1-yl)-N-((2-(2-morpholinoethyl)-7-nitroindolin-5-yl)sulfonyl)benzamide], the IC50 in the assay on DOHH2 cells (Homo sapiens, DOHH-2, 120 h) was found to be 79 nM; with RS4;11 cells (Homo sapiens, RS4-11, 72 h), 38 nM.
For `CN1CCN(C[C@@H]2Cc3cc(S(=O)(=O)NC(=O)c4ccc(N5CCN(CC6=C(c7ccc(Cl)cc7)CC(C)(C)CC6)CC5)cc4Oc4cnc5[nH]ccc5c4)cc([N+](=O)[O-])c3N2)CC1` [Example 1-3, (S)-2-((1H-pyrrolo[2,3-b]pyridin-5-yl)oxy)-4-(4-((4′-chloro-5,5-dimethyl-3,4,5,6-tetra-hydro-[1,1′-biphenyl]-2-yl)methyl)piperazin-1-yl)-N-((2-((4-methylpiperazin-1-yl)meth-yl)-7-nitroindolin-5-yl)sulfonyl)benzamide], in that order: 20 nM and 8 nM.
In the assay on DOHH2 cells (Homo sapiens, DOHH-2, 120 h), `CC1(C)CCC(CN2CCN(c3ccc(C(=O)NS(=O)(=O)c4cc5c(c([N+](=O)[O-])c4)O[C@H](c4ccc(Cl)cn4)CN5)c(Oc4cnc5[nH]ccc5c4)c3)CC2)=C(c2ccc(Cl)cc2)C1` [Example 2-218, (S)-2-((1H-pyrrolo[2,3-b]pyridin-5-yl)oxy)-4-(4-((4′-chloro-5,5-dimethyl-3,4,5,6-tetra-hydro-[1,1′-biphenyl]-2-yl)methyl)piperazin-1-yl)-N-((2-(5-chloropyridin-2-yl)-8-nitro-3,4-dihdyro-2H-benzo[b][1,4]oxazin-6-yl)sulfonyl)benzamide] displayed a concentration for half-maximal inhibition (IC50) of 507 nM.
The molecule `CC1(C)CCC(CN2CCN(c3ccc(C(=O)NS(=O)(=O)c4cc5c(c([N+](=O)[O-])c4)N[C@H](CC4CCC(C)(O)CC4)CO5)c(Oc4cnc5[nH]ccc5c4)c3)CC2)=C(c2ccc(Cl)cc2)C1` (stereo partly drawn) [Example 2-219, (R)-2-((1H-pyrrolo[2,3-b]pyridin-5-yl)oxy)-4-(4-((4′-chloro-5,5-dimethyl-3,4,5,6-tetra-hydro-[1,1′-biphenyl]-2-yl)methyl)piperazin-1-yl)-N-((3-((4-hydroxy-4-methylcyclo-hexyl)methyl)-5-nitro-3,4-dihydro-2H-benzo [b][1,4]oxazin-7-yl)sulfonyl)benzamide] had an IC50 in the assay with DOHH2 cells (Homo sapiens, DOHH-2, 120 h) of 662 nM.
On to `CC1(C)CCC(CN2CCN(c3ccc(C(=O)NS(=O)(=O)c4cc5c(c([N+](=O)[O-])c4)N[C@@H](C4CCNCC4)CO5)c(Oc4cnc5[nH]ccc5c4)c3)CC2)=C(c2ccc(Cl)cc2)C1` [Example 2-228, (S)-2-((1H-pyrrolo[2,3-b]pyridin-5-yl)oxy)-4-(4-((4′-chloro-5,5-dimethyl-3,4,5,6-tetra-hydro-[1,1′-biphenyl]-2-yl)methyl)piperazin-1-yl)-N-((5-nitro-3-(piperidin-4-yl)-3,4-dihydro-2H-benzo[b][1,4]oxazin-7-yl)sulfonyl)benzamide], for which the half-inhibitory concentration (IC50) in the assay with DOHH2 cells (Homo sapiens, DOHH-2, 120 h) came to 48 nM.
`CC1(C)CCC(CN2CCN(c3ccc(C(=O)NS(=O)(=O)c4cc5c(c([N+](=O)[O-])c4)N[C@@H](C4CCC(O)CC4)CO5)c(Oc4cnc5[nH]ccc5c4)c3)CC2)=C(c2ccc(Cl)cc2)C1` (stereo partly drawn) [Example 2-245B, (S)-2-((1H-pyrrolo[2,3-b]pyridin-5-yl)oxy)-4-(4-((4′-chloro-5,5-dimethyl-3,4,5,6-tetra-hydro-[1,1′-biphenyl]-2-yl)methyl)piperazin-1-yl)-N-((3-(4-hydroxycyclohexyl)-5-nitro-3,4-dihydro-2H-benzo[b][1,4]oxazin-7-yl)sulfonyl)benzamide]: the IC50 in the assay on DOHH2 cells worked out at 1 nM.
For `CN1CCN(CC[C@@H]2CNc3cc(S(=O)(=O)NC(=O)c4ccc(N5CCN(CC6=C(c7ccc(Cl)cc7)CC(C)(C)CC6)CC5)cc4Oc4cnc5[nH]ccc5c4)cc([N+](=O)[O-])c3N2)CC1` [Example 4-5, (R)-2-((1H-pyrrolo[2,3-b]pyridin-5-yl)oxy)-4-(4-((4′-chloro-5,5-dimethyl-3,4,5,6-tetra-hydro-[1,1′-biphenyl]-2-yl)methyl)piperazin-1-yl)-N-((2-(2-(4-methylpiperazin-1-yl)ethyl)-8-nitro-1,2,3,4-tetrahydroquinoxalin-6-yl)sulfonyl)benzamide], in the assay with DOHH2 cells (Homo sapiens, DOHH-2, 120 h), half-maximal inhibition (IC50) was put at 232 nM.
Still for that read-out and setting: the value for `CC1(C)CCC(CN2CCN(c3ccc(C(=O)NS(=O)(=O)c4cc5c(c([N+](=O)[O-])c4)N[C@@H](C4CC4)CO5)c(-n4ncc5nc6[nH]ccc6cc54)c3)CC2)=C(c2ccc(Cl)cc2)C1` [Example 6-2, (S)-4-(4-((4′-chloro-5,5-dimethyl-3,4,5,6-tetrahydro-[1,1′-biphenyl]-2-yl)methyl)piperazin-1-yl)-N-((3-cyclopropyl-5-nitro-3,4-dihydro-2H-benzo[b][1,4]oxazin-7-yl)sulfonyl)-2-(pyrazolo[4,3-b]pyrrolo[3,2-e]pyridin-1(5H)-yl)benzamide] was 264 nM.
In turn, `CC1(C)CCC(CN2CCN(c3ccc(C(=O)NS(=O)(=O)c4cc5c(c([N+](=O)[O-])c4)N[C@@H](Cc4ccccn4)CO5)c(-n4ncc5nc6[nH]ccc6cc54)c3)CC2)=C(c2ccc(Cl)cc2)C1` [Example 6-3, (S)-4-(4-((4′-chloro-5,5-dimethyl-3,4,5,6-tetrahydro-[1,1′-biphenyl]-2-yl)methyl)piperazin-1-yl)-N-((5-nitro-3-(pyridin-2-ylmethyl)-3,4-dihydro-2H-benzo[b][1,4]oxazin-7-yl)sulfonyl)-2-(pyrazolo[4,3-b]pyrrolo[3,2-e]pyridin-1(5H)-yl)benzamide] returned an IC50 with DOHH2 cells (Homo sapiens, DOHH-2, 120 h) of 185 nM.
